pIC50: −log10 of the molar value.

Data set [1] concerns the target C-C chemokine receptor type 8 (Homo sapiens, UniProt P51685). Nature of the data set: Antagonist activity at CCR8 receptor. It is filed as functional.
A short description of data set [2]: Lipophilicity, log D at pH 7.4. The following applies: buffer.
Data set [3] deals with Voltage-gated inwardly rectifying potassium channel KCNH2 (Homo sapiens, UniProt Q12809). Nature of the data set: Displacement of [3H]dofetilide from human recombinant ERG potassium channel expressed in HEK293 cells by patch clamp method. On the technique in general: In a radioligand displacement assay an active substance lowers the binding of a labelled ligand.
Chain of Voltage-gated inwardly rectifying potassium channel KCNH2 (Q12809 whole entry): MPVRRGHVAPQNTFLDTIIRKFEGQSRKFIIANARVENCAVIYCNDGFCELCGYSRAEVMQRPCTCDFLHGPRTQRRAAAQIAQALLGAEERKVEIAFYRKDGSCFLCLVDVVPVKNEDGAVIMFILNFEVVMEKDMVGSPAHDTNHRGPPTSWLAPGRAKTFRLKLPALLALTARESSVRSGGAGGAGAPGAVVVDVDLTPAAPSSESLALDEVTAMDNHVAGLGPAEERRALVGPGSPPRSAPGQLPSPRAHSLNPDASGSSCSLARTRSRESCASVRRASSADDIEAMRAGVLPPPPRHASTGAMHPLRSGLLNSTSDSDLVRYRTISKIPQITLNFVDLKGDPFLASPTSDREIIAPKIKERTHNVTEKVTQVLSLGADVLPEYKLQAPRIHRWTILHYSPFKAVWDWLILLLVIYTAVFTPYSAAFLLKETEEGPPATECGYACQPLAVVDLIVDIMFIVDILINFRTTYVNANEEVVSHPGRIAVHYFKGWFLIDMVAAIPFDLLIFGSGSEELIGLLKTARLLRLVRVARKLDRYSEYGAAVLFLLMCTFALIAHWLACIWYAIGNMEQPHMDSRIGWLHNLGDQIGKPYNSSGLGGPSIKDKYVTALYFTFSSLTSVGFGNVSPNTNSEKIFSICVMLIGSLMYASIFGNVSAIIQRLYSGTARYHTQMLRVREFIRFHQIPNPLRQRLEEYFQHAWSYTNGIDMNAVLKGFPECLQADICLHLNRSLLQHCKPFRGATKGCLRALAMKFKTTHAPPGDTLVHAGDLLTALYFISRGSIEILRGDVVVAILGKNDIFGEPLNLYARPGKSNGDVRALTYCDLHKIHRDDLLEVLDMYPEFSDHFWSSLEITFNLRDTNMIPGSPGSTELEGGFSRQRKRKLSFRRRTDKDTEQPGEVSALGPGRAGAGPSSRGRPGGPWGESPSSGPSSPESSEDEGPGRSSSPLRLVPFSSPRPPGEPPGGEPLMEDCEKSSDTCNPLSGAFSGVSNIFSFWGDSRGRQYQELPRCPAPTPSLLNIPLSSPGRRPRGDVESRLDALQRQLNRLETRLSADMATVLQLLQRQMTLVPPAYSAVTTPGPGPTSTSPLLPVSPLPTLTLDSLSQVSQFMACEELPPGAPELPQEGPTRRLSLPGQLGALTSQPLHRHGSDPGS

Chain of C-C chemokine receptor type 8 (P51685 whole entry): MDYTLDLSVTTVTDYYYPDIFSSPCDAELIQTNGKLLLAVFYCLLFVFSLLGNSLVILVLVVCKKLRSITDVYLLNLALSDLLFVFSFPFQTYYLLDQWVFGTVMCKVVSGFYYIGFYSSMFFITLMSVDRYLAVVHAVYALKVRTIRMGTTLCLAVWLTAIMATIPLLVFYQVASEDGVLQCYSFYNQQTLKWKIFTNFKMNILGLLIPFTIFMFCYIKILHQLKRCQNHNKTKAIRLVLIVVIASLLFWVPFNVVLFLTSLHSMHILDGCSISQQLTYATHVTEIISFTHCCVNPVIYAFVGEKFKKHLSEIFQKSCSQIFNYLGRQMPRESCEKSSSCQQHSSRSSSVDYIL

On to `COc1ccccc1Oc1ccccc1CN1CCC2(CC1)CCN(C(=O)c1ccncc1)CC2`, for which the pIC50 (as a rule, −log10 of the IC50, conventionally taken in molar units) in data set [1] was 7.92. Also, the logD – broadly, lipophilicity at a set pH, counting ionised and neutral species – in data set [2] stood at 1.8.

As to `COc1ccccc1Oc1cccc(CN2CCC3(CC2)CCN(C(=O)c2ccc(Cl)cc2)CC3)c1`, the pIC50 in data set [1] is 7.92. This compound also came in with a pH-dependent lipophilicity (logD) in data set [2] of 3.5.

In data set [1], `O=C(c1ccncc1)N1CCC2(CCN(Cc3ccccc3Oc3ccccc3)CC2)CC1` had a pIC50 of 7.48.

Take `COc1ccccc1Oc1ccccc1CN1CCC2(CC1)CCN(C(=O)c1cccc[n+]1[O-])CC2`: the pIC50 is 5.72 in data set [3] and 7.10 in data set [1]. The logD in data set [2] came out at 0.5.

On to `O=C(c1cc[n+]([O-])cc1)N1CCC2(CCN(Cc3cccc(Oc4ccccc4)c3)CC2)CC1`, for which, in data set [1], the negative logarithm of the IC50 (pIC50) is 6.78. This compound also displayed a logD in data set [2] of 1.2.

In data set [1], `O=C(c1ccncn1)N1CCC2(CCN(Cc3cccc(Oc4ccccc4)c3)CC2)CC1` showed a pIC50 of 7.56. The pH-dependent lipophilicity (logD) in data set [2] was determined as 2.4.

The compound `COc1ccccc1Oc1ccccc1CN1CCC2(CC1)CCN(C(=O)c1cc[n+]([O-])cc1)CC2` gave a pIC50 in data set [1] of 6.94. The compound further returned a logD in data set [2] of 0.5.

`O=C(c1ccc(O)cc1OC[C@@H](O)CN1CCC2(CC1)Cc1cc(Cl)ccc1O2)N1C[C@H](O)CO1`: the negative logarithm of the IC50 (pIC50) in data set [3] was 7.60. Besides, the logD in data set [2] is 1.55.

Consider `O=C(c1ccc(Cl)cc1)N1CCC2(CCN(Cc3ccccc3Oc3ccccc3)CC2)CC1`, for which the pH-dependent lipophilicity (logD) in data set [2] was 3.5.

The values above are taken from ChEMBL document CHEMBL1142336, “Overcoming undesirable HERG potency of chemokine receptor antagonists using baseline lipophilicity relationships” (J Med Chem, 2008).
